Experimental data as given in PubChem BioAssay AID330 (DTP/NCI, 2004).
“And” between values parts separate entries of the source, which are not always exact repeats. Identical values can stand only once. Toxic doses and inconclusive results are not listed.

Tested on: P388 leukemia ip, CD2F1 mice, survival T/C
Assay: NCI In Vivo Anticancer Drug Screen. Data for tumor model P388 Leukemia (intraperitoneal) in CD2F1 (CDF1) mice
Conditions: endpoint: median survival time, higher = longer survival
Outline: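 Mice carrying the transplanted tumor received test compound or vehicle. Survival was recorded in each group, and the value is the treated-group measurement divided by that of the vehicle-treated control group.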

[1] = dose: 12.5 mg/kg/injection, schedule: Q01DX005 (ip), vehicle: saline with Tween-80
[2] = dose: 50.0 mg/kg/injection, schedule: Q01DX005 (ip), vehicle: saline with Tween-80
[3] = dose: 50.0 mg/kg/injection, schedule: Q01DX009 (ip), vehicle: Klucel (hydroxypropylcellulose) (HPC)
[4] = dose: 100.0 mg/kg/injection, schedule: Q01DX009 (ip), vehicle: Klucel (hydroxypropylcellulose) (HPC)
[5] = dose: 200.0 mg/kg/injection, schedule: Q01DX009 (ip), vehicle: Klucel (hydroxypropylcellulose) (HPC)
[6] = dose: 60.0 mg/kg/injection, schedule: Q01DX005 (ip), vehicle: saline with Tween-80
[7] = dose: 120.0 mg/kg/injection, schedule: Q01DX005 (ip), vehicle: saline with Tween-80
[8] = dose: 240.0 mg/kg/injection, schedule: Q01DX005 (ip), vehicle: saline with Tween-80
[9] = dose: 100.0 mg/kg/injection, schedule: Q01DX005 (ip), vehicle: saline with Tween-80
[10] = dose: 50.0 mg/kg/injection, schedule: Q01DX009 (ip), vehicle: saline
[11] = dose: 100.0 mg/kg/injection, schedule: Q01DX009 (ip), vehicle: saline
[12] = dose: 200.0 mg/kg/injection, schedule: Q01DX009 (ip), vehicle: saline
[13] = dose: 60.0 mg/kg/injection, schedule: Q01DX005 (ip), vehicle: Klucel (hydroxypropylcellulose) (HPC)
[14] = dose: 25.0 mg/kg/injection, schedule: Q01DX009 (ip), vehicle: saline

CCOC(=O)c1cc2c(nc1C)-c1ccccc1OC2Nc1ccccc1 (stereo not given)
T/C (dose: 3.12 mg/kg/injection, schedule: Q01DX005 (ip), vehicle: saline with Tween-80): 98 % of control | T/C (dose: 6.25 mg/kg/injection, schedule: Q01DX005 (ip), vehicle: saline with Tween-80): 96 % of control | T/C [1]: 96 % of control | T/C [2]: 88 % of control | T/C (dose: 100.0 mg/kg/injection, schedule: Q01DX001 (ip), vehicle: saline with Tween-80): 89 % of control

CC(=O)OC1CN(c2ccc(Br)cc2)CC(OC(C)=O)CN(c2ccc(Br)cc2)C1 (stereo not given)
T/C [3]: 99 % of control | T/C [4]: 100 % of control | T/C [5]: 97 % of control

Nc1[nH]c(=O)[nH]c(=O)c1S(=O)(=O)O
T/C [3]: 95 % of control | T/C [4]: 90 % of control | T/C [5]: 95 % of control

O=C(O)c1cc2c([nH]1)-c1cccnc1C(=O)C2=O
T/C [6]: 101 % of control | T/C [7]: 105 % of control | T/C [8]: 101 % of control

CCCCCCCCCCCCCS
T/C (dose: 50.0 mg/kg/injection, schedule: Q01DX009 (ip), vehicle: saline with Tween-80): 118 % of control | T/C (dose: 132.0 mg/kg/injection, schedule: Q04DX003 (ip), vehicle: saline with Tween-80): 104 % of control

O=C(O)C1(N(CCO)CCO)CCCC1
T/C (dose: 50.0 mg/kg/injection, schedule: Q01DX005 (ip), vehicle: saline): 104 % of control | T/C (dose: 100.0 mg/kg/injection, schedule: Q01DX005 (ip), vehicle: saline): 100 % of control | T/C (dose: 200.0 mg/kg/injection, schedule: Q01DX005 (ip), vehicle: saline): 106 % of control

Cc1cccc(C)c1N=O
T/C [3]: 122 % of control and 124 % of control | T/C [5]: 87 % of control

O.O.O=C(O)C(=O)O.O=C(O)C(=O)O.[Rh]
T/C (dose: 25.0 mg/kg/injection, schedule: Q04DX003 (ip), vehicle: water): 94 % of control | T/C (dose: 50.0 mg/kg/injection, schedule: Q04DX003 (ip), vehicle: water): 95 % of control | T/C (dose: 100.0 mg/kg/injection, schedule: Q04DX003 (ip), vehicle: water): 100 % of control | T/C (dose: 200.0 mg/kg/injection, schedule: Q04DX003 (ip), vehicle: water): 100 % of control

Nc1nc(Nc2ccccc2)nc(-c2ccccc2)n1
T/C [2]: 100 % of control | T/C [9]: 86 % of control

CC(Cc1ccccc1)NC(=O)c1cccnc1 (stereo not given)
T/C (dose: 50.0 mg/kg/injection, schedule: Q01DX005 (ip), vehicle: Klucel (hydroxypropylcellulose) (HPC)): 98 % of control | T/C (dose: 100.0 mg/kg/injection, schedule: Q01DX005 (ip), vehicle: Klucel (hydroxypropylcellulose) (HPC)): 90 % of control | T/C (dose: 200.0 mg/kg/injection, schedule: Q01DX005 (ip), vehicle: Klucel (hydroxypropylcellulose) (HPC)): 99 % of control

Cn1c(=O)c2c(N=NC(N)=S)c(O)[nH]c2n(C)c1=O
T/C (dose: 100.0 mg/kg/injection, schedule: Q04DX003 (ip), vehicle: Klucel (hydroxypropylcellulose) (HPC)): 100 % of control | T/C (dose: 200.0 mg/kg/injection, schedule: Q04DX003 (ip), vehicle: Klucel (hydroxypropylcellulose) (HPC)): 108 % of control | T/C (dose: 400.0 mg/kg/injection, schedule: Q04DX003 (ip), vehicle: Klucel (hydroxypropylcellulose) (HPC)): 96 % of control

CN1CCCc2cc(/C=C\c3ccnc4ccccc34)ccc21
T/C (dose: 25.0 mg/kg/injection, schedule: Q01DX009 (ip), vehicle: Klucel (hydroxypropylcellulose) (HPC)): 93 % of control | T/C [3]: 104 % of control | T/C [5]: 118 % of control

O=C1CCC(c2n[nH]c(=S)n2-c2ccccc2)N1 (stereo not given)
T/C [6]: 100 % of control | T/C [7]: 97 % of control | T/C [8]: 94 % of control

CN(C)C(C#CCO)c1ccccc1 (stereo not given)
T/C (dose: 60.0 mg/kg/injection, schedule: Q01DX005 (ip), vehicle: saline): 100 % of control | T/C (dose: 120.0 mg/kg/injection, schedule: Q01DX005 (ip), vehicle: saline): 103 % of control | T/C (dose: 240.0 mg/kg/injection, schedule: Q01DX005 (ip), vehicle: saline): 101 % of control

C/C(=N\NC(=S)Nc1ccc(S(N)(=O)=O)cc1)c1ccccn1
T/C [1]: 94 % of control | T/C (dose: 25.0 mg/kg/injection, schedule: Q01DX005 (ip), vehicle: saline with Tween-80): 108 % of control | T/C [2]: 119 % of control | T/C [9]: 96 % of control

CSCC(N)CO (stereo not given)
T/C [10]: 110 % of control | T/C [11]: 105 % of control | T/C [12]: 101 % of control

COC(=O)C(CSCc1ccccc1)NC(=O)CCNC(=O)OCc1ccccc1 (stereo not given)
T/C (dose: 25.0 mg/kg/injection, schedule: Q01DX009 (ip), vehicle: other): 103 % of control | T/C (dose: 50.0 mg/kg/injection, schedule: Q01DX009 (ip), vehicle: other): 103 % of control | T/C (dose: 100.0 mg/kg/injection, schedule: Q01DX009 (ip), vehicle: other): 96 % of control | T/C (dose: 200.0 mg/kg/injection, schedule: Q01DX009 (ip), vehicle: other): 90 % of control | T/C (dose: 400.0 mg/kg/injection, schedule: Q01DX009 (ip), vehicle: other): 97 % of control

CCOP(=O)(c1ccccc1)N1CCOCC1 (stereo not given)
T/C (dose: 100.0 mg/kg/injection, schedule: Q04DX003 (ip), vehicle: saline): 105 % of control | T/C (dose: 200.0 mg/kg/injection, schedule: Q04DX003 (ip), vehicle: saline): 108 % of control | T/C (dose: 400.0 mg/kg/injection, schedule: Q04DX003 (ip), vehicle: saline): 95 % of control

NC(=O)c1cc2c(oc1=O)-c1ccccc1N(C=O)C2
T/C [6]: 100 % of control | T/C [7]: 95 % of control | T/C [8]: 95 % of control

Cc1cc2c(cc1C)NC1=C(N2)OC(c2c[nH]c3ccc(COc4ccccc4)cc23)C1=O (stereo not given)
T/C [6]: 92 % of control | T/C [7]: 90 % of control | T/C [8]: 92 % of control

CCCCCCC(O)C/C=C\CCCCCCCC(=O)O (stereo not given)
T/C [3]: 107 % of control | T/C [4]: 107 % of control | T/C [5]: 102 % of control | T/C (dose: 400.0 mg/kg/injection, schedule: Q01DX009 (ip), vehicle: Klucel (hydroxypropylcellulose) (HPC)): 95 % of control

Cc1cc(N)nc2cc(N)ccc12
T/C (dose: 15.0 mg/kg/injection, schedule: Q01DX005 (ip), vehicle: Klucel (hydroxypropylcellulose) (HPC)): 89 % of control | T/C (dose: 30.0 mg/kg/injection, schedule: Q01DX005 (ip), vehicle: Klucel (hydroxypropylcellulose) (HPC)): 99 % of control | T/C [13]: 98 % of control

C=C1[C@H]2C[C@H]2[C@]2(C)C=C3OC(=O)C(C)=C3C[C@@H]12
T/C (dose: 5.5 mg/kg/injection, schedule: Q01DX005 (ip), vehicle: Klucel (hydroxypropylcellulose) (HPC)): 94 % of control | T/C (dose: 11.0 mg/kg/injection, schedule: Q01DX005 (ip), vehicle: Klucel (hydroxypropylcellulose) (HPC)): 98 % of control | T/C (dose: 22.0 mg/kg/injection, schedule: Q01DX005 (ip), vehicle: Klucel (hydroxypropylcellulose) (HPC)): 100 % of control | T/C (dose: 44.0 mg/kg/injection, schedule: Q01DX005 (ip), vehicle: Klucel (hydroxypropylcellulose) (HPC)): 94 % of control | T/C (dose: 80.0 mg/kg/injection, schedule: Q01DX005 (ip), vehicle: Klucel (hydroxypropylcellulose) (HPC)): 91 % of control

COc1cc2c(/C=N/Nc3ccccc3[N+](=O)[O-])c(Cl)[nH]c2cc1C
T/C (dose: 50.0 mg/kg/injection, schedule: Q01DX001 (ip), vehicle: Klucel (hydroxypropylcellulose) (HPC)): 107 % of control | T/C (dose: 100.0 mg/kg/injection, schedule: Q01DX001 (ip), vehicle: Klucel (hydroxypropylcellulose) (HPC)): 98 % of control and 87 % of control | T/C (dose: 200.0 mg/kg/injection, schedule: Q01DX001 (ip), vehicle: Klucel (hydroxypropylcellulose) (HPC)): 98 % of control and 87 % of control | T/C (dose: 400.0 mg/kg/injection, schedule: Q01DX001 (ip), vehicle: Klucel (hydroxypropylcellulose) (HPC)): 90 % of control

O=C1N2CCCC2(S)C(=O)N2CCCC12[S-].[Zn] (stereo not given)
T/C (dose: 12.5 mg/kg/injection, schedule: Q01DX009 (ip), vehicle: saline): 95 % of control and 97 % of control | T/C [14]: 100 % of control and 90 % of control | T/C [10]: 108 % of control and 119 % of control | T/C [11]: 124 % of control and 95 % of control

CC1NC(=O)C(C)NC1=O (stereo not given)
T/C [3]: 93 % of control | T/C [4]: 96 % of control | T/C [5]: 94 % of control

C=CC(=O)C(C(=O)OCC)=P(c1ccccc1)(c1ccccc1)c1ccccc1
T/C [13]: 98 % of control | T/C (dose: 120.0 mg/kg/injection, schedule: Q01DX005 (ip), vehicle: Klucel (hydroxypropylcellulose) (HPC)): 97 % of control | T/C (dose: 240.0 mg/kg/injection, schedule: Q01DX005 (ip), vehicle: Klucel (hydroxypropylcellulose) (HPC)): 101 % of control

NCc1cc(O)c(O)c(O)c1
T/C [14]: 100 % of control | T/C [10]: 103 % of control and 120 % of control | T/C [11]: 110 % of control and 118 % of control and 114 % of control | T/C [12]: 116 % of control and 120 % of control and 122 % of control | T/C (dose: 400.0 mg/kg/injection, schedule: Q01DX009 (ip), vehicle: saline): 121 % of control and 123 % of control and 124 % of control | T/C (dose: 600.0 mg/kg/injection, schedule: Q01DX009 (ip), vehicle: saline): 155 % of control and 157 % of control and 150 % of control
